Measurements from patent US12612408B2, “Pyrazolone-fused pyrimidine compound, preparation method for same and applications thereof” (SHANGHAI PHARMACEUTICALS HOLDING CO., LTD., priority 2019, dated 2026).

How the values were obtained:
[1] = Bioavailability test in vivo in cynomolgus monkey (pharmacokinetics, IV and PO); conditions: cynomolgus monkeys
Experimental: Twelve male Non-Naïve cynomolgus monkeys were purchased from GuangxiGuidong Primate Development Experiment Co. LTD.
(§1) 54.31 mg of I-8-1 was accurately weighed, and 1.08 mL of DMSO was added, then the mixture was vortexed for 1 min, sonicated for 15 min, and then diluted to 36 mL according to the ratio of 10% HP-β-cyclodextrin (prepared by normal saline): PEG=8:2, vortexed for 1 min. A colorless clarified administration solution (the pH value was about 7) at a concentration of 1.5 mg/mL was prepared for intravenous administration to Group 1.
300.9 mg of I-8-1 was accurately weighed, and 75 mL of 0.5% CMC-Na was added, the mixture was fully ground and stirred for 5 min. A white suspension (the pH value was about 7) at a concentration of 4 mg/mL was prepared for oral administration to Group 2.
as §1, with “54.05 mg” for “54.31 mg”, “of AZD1775” for “of I-8-1”, “then he” for “then the”, “of 10%-D-cyclodextrin” for “of 10% HP-β-cyclodextrin”, “A yellow” for “A colorless”, “Group 3.” for “Group 1.”
300.7 mg of AZD1775 was accurately weighed, and 75 mL of 0.5% CMC-Na was added, the mixture was fully ground and stirred for 5 min. A yellow suspension (the pH value was about 7) at a concentration of 4 mg/mL was prepared for oral administration to Group 4.
Before administration, all animals were fasted overnight (approximately 12 hours) and fed as required and administered according to the table below.
Intravenous group: before administration (0 h), 0.033 h, 0.083 h, 0.25 h, 0.5 h, 1 h, 1.5 h, 2 h, 4 h, 6 h, 8 h, 12 h, 24 h after administration.
Oral group: before administration (0 h), 0.083 h, 0.25 h, 0.5 h, […], 2 h, 4 h, 6 h, 8 h, 12 h, 24 h after administration.
Blood samples were collected by puncture through lower limb vein or other suitable blood vessels at 1 mL/time point (3 mL of blood samples were collected from each animal before administration), anticoagulated with heparin sodium, and placed on ice after collection. Plasma was separated at 2200 g/min, 10 min, 2-8° C., plasma samples were stored in a −80° C. refrigerator before being transferred to the client. Plasma samples are stored in dry ice and transferred to the client. The final treatment of the sample will be recorded in the experimental record.
300 μL of acetonitrile was added to 50 μL of plasma samples containing internal standard (Propranolol, 25 ng/mL) to precipitate protein, vortexed for 10 min, centrifuged at 6000 g for 10 min, after I-8-1&AZD1775 intravenous injection group was diluted 10 times with internal standard acetonitrile (Propranolol, 25 ng/mL) at the time point before 1 hour, the remaining supernatant was not diluted, centrifuged again at 6000 g at 4° C. for 10 min, and the supernatant was taken and injected into a 96 well plate.
(§2) Dose; peak concentration: Cmax; peak time: Tmax; area under the drug-time curve from AUClast 0 to time t; half-life: T1/2; mean retention time: MRT; clearance: Cl; apparent distribution volume: Vz; steady-state distributed volume: Vss; absolute bioavailability: F.
The pharmacokinetic parameters of the compound in cynomolgus monkeys after intravenous injection or intragastric administration were shown in Table 6 below.

[2] = Bioavailability test in vivo in mice (pharmacokinetics, iv and intragastric); parameters: species or system ICR mice
Experimental: 404.6 μL of DMSO was added to the compound powder of the present disclosure until the compound was completely dissolved, and 50 mg/mL mother liquor was prepared in a clarified state.
The compound of the present disclosure: 24 μL of mother liquor was accurately measured, diluted to 4 mL according to the ratio of 0.9% normal saline:PEG400=8:2, the preparation concentration was 0.3 mg/mL, the solution was in a clarified state, and it was used as intravenous administration solution. In addition, 80 μL mother liquor was accurately measured, and 0.5% CMC-Na was added to 8 mL to grind it into a uniform suspension with a concentration of 0.5 mg/mL, which was used as intragastric administration solution.
(§3) Intravenous group: 24 ICR mice, 20±2 g, were given the intravenous administration solution of the compound of the present disclosure by intravenous injection, with the volume of 10 mL/kg, with the dose of 3 mg/kg, the blood was taken from the fundus venous plexus of mice, 2, 5, 15, 30, 60, 90, 120, 240, 360, 480, 600 and 1440 minutes before and after administration.
as §3, with “Intragastric group:” for “Intravenous group:”, “the intragastric” for “the intravenous”, “by intragastric” for “by intravenous”, “of 20” for “of 10”, “of 10” for “of 3”, “mice,” for “mice, 2,”
Blood sample was centrifuged at 8000 rpm for 5 min, and the plasma was stored in a centrifuge tube at −20° C. for later use.
300 μL of acetonitrile containing internal standard (Propranolol, 25 ng/mL) was added to 50 μL of plasma samples to precipitate protein, vortexed for 10 min, 6000 g, 4° C., centrifuged for 10 min; the supernatant before intravenous injection for 1 hour was taken, diluted 10 times with acetonitrile containing internal standard, the rest supernatant was kept undiluted, centrifuged for 10 min again at 6000 g, 4° C., and the supernatant was taken and then injected into a 96-well plate.
as §2
The pharmacokinetic parameters of the compound in mice after intravenous injection or intragastric administration were shown in Table 4 and Table 5 below.

[3] = male, cynomolgus monkey, plasma, iv, 3 mg/kg
[4] = male, cynomolgus monkey, plasma, po, 20 mg/kg, fasted
[5] = ICR, mouse, plasma, iv, 3 mg/kg
[6] = ICR, mouse, plasma, po (intragastric), 10 mg/kg

C=CCn1c(=O)c2cnc(Nc3ccc(C4CCC(N5CCC5)CC4)cc3)nc2n1-c1cccc(C(C)(C)O)n1 (single isomer, unassigned) [Compound I-8-1]
AUCextra ([1]; iv, 3 mg/kg): 16.11 ± 9.34 (h)*(ng/mL)
AUClast ([1]; iv, 3 mg/kg): 957.6 ± 126.3 (h)*(ng/mL)
AUCtot ([1]; iv, 3 mg/kg): 973.8 ± 131.4 (h)*(ng/mL)
thalf ([1]; iv, 3 mg/kg): 2.05 ± 1.24 h
AUCextra ([1]; po, 20 mg/kg, fasted): 187.03 ± 166.00 (h)*(ng/mL)
AUClast ([1]; po, 20 mg/kg, fasted): 6548 ± 3043 (h)*(ng/mL)
AUCtot ([1]; po, 20 mg/kg, fasted): 6735 ± 3201 (h)*(ng/mL)
thalf ([1]; po, 20 mg/kg, fasted): 3.71 ± 0.72 h
Vd ([1]; male, cynomolgus monkey, plasma, iv, 3 mg/kg, iv, 3 mg/kg, read-out: Vss): 9.67 ± 1.32 L/kg
Vd ([1]; male, cynomolgus monkey, plasma, iv, 3 mg/kg, iv, 3 mg/kg, read-out: Vz): 8.78 ± 4.22 L/kg
Cmax [1, 3]: 838 ± 190 ng/mL
MRT [1, 3]: 3.17 ± 0.82 h
Tmax [1, 3]: 0.03 h
clearance [1, 3]: 52 mL/min/kg
bioavailability ([1]; male, cynomolgus monkey, plasma, po 20 mg/kg vs iv 3 mg/kg, read-out: BA (absolute bioavailability)): 103%
Cmax [1, 4]: 721 ± 260 ng/mL
MRT [1, 4]: 7.91 ± 2 h
Tmax [1, 4]: 4.5 ± 2.6 h
Cmax [2, 5]: 644 ± 132 ng/mL
MRT [2, 5]: 1.11 ± 0.08 h
Tmax [2, 5]: 0.03 h
clearance [2, 5]: 155 mL/min/kg
half-life [2, 5]: 1.22 ± 0.1 h
Vd ([2]; ICR, mouse, plasma, iv, 3 mg/kg, iv, 3 mg/kg, read-out: Vss): 10.3 ± 0.86 L/kg
Vd ([2]; ICR, mouse, plasma, iv, 3 mg/kg, iv, 3 mg/kg, read-out: Vz): 16.3 ± 2.48 L/kg
bioavailability ([2]; ICR, mouse, plasma, po 10 mg/kg vs iv 3 mg/kg, read-out: F (absolute bioavailability)): 60.3%
Cmax [2, 6]: 58.1 ± 7.09 ng/mL
MRT [2, 6]: 3.47 ± 1.22 h
Tmax [2, 6]: 1.67 ± 0.29 h
half-life [2, 6]: 1.57 ± 0.39 h
AUClast ([2]; iv, 3 mg/kg): 317.5 ± 34.41 (h) (ng/mL)
AUClast ([2]; po (intragastric), 10 mg/kg): 637.9 ± 302.3 (h) (ng/mL)
